Data taken from patent US7442713B2, “2-thio-substituted imidazole derivatives and their use in pharmaceutics” (Merckle GmbH, priority 2002, dated 2008).

Experiments:
TNFα = assay: In vitro test of cytokine release, LPS-stimulated human whole blood / PBMCs: TNFα; type: cell-based; conditions: LPS stimulation, ELISA; for IC50: Homo sapiens, PBMC, read-out: Cytokines IC50 TNF α
Description: (§1) The compounds or compositions according to the invention can be administered to mammals (man or animal) in a dose of from about 0.5 mg to 100 mg per kg of body weight per day. They may be administered in one individual dose or in a plurality of doses. The activity spectrum of the compounds as inhibitors of cytokine release was examined using the test systems below, as described by C. Donat and S. Laufer in Arch. Pharm. Pharm. Med. Chem. 333, Suppl. 1, 1-40, 2000.
(§2) In vitro Test with Human Whole Blood
(§3) The test substance is added to samples of human potassium-EDTA whole blood (of 400 μl each) and the samples are preincubated in a CO2 incubator (5% CO2; 95% moisture-saturated air) at 37° C. for 15 min. The samples are then stimulated with 1 μg/ml of LPS (E. coli 026:B6) at 37° C. in a CO2 incubator (5% CO2; 95% moisture-saturated air) for 4 hours. The reaction is stopped by placing the samples on ice, adding DPBS buffer and then centrifuging at 1000*g for 15 min. The amount of IL-1β and TNFα in the plasma supernatant is then determined by ELISA.
(§4) 1) The mononuclear cells (PBMCs) from human potassium-EDTA whole blood, diluted 1:3, are isolated by density gradient centrifugation (Histopaque®-1.077). The cells are washed twice with DPBS buffer, resuspended in macrophage SFM medium and adjusted to a cell count of 1*10^6 cells/ml.
(§5) The resulting PBMCs suspension (samples of in each case 390 μl) and the test substance are preincubated at 37° C. in a CO2 incubator (5% CO2; 95% moisture-saturated air) for 15 min. The samples are then stimulated with in each case […] of LPS (E. coli 026:B6) at 37° C. in a CO2 incubator (5% CO2; 95% moisture-saturated air) for 4 hours. The reaction is stopped by placing the samples on ice, adding DPBS buffer and then centrifuging at 15 880*g for 12 min. The amount of IL-1β and TNFα in the plasma supernatant is then determined by ELISA.

IL-1β = assay: In vitro test of cytokine release, LPS-stimulated human whole blood / PBMCs: IL-1β; type: cell-based; conditions: PBMC, LPS stimulation, ELISA, read-out: Cytokines IC50 IL-1β
Description: as §1, §2, §3, §4, §5

activated p38α = activated p38α (Homo sapiens, UniProt Q16539); assay: Kinase assay (p38α, ATF2 substrate, ELISA read-out); type: biochemical; conditions: Table 1; for IC50: 100 μM ATP, 10 ng activated p38α, read-out: Kinase assay IC50
Sequence of activated p38α (Q16539 whole entry): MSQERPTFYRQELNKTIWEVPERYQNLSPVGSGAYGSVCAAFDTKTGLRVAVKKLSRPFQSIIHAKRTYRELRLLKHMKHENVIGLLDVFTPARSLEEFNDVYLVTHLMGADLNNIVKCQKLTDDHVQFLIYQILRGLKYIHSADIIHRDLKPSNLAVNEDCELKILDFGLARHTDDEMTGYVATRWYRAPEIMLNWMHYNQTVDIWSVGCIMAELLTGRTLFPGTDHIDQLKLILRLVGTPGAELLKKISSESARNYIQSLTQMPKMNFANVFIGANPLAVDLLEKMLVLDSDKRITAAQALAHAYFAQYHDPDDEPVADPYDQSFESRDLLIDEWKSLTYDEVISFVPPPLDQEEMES
Description: At 37° C., microtiter plates were coated with 50 μl of ATF2 solution ([…]) for one hour. The plates were washed three times with water, and 50 μl of kinase mixture (50 mM tris-HCl, 10 mM MgCl2, 10 mM β-glycerol phosphate, 10 μg/ml BSA, 1 mM DTT, 100 μM ATP, 100 μM Na3VO4, 10 ng of activated p38α) with or without inhibitor were then added into the wells, and the plates were incubated at 37° C. for 1 hour. The plates were washed three times and then incubated at 37° C. with phosphorus-ATF-2 antibodies for one hour. Once more, the plates were washed three times, and goat-anti-rabbit IgG labeled with alkaline phosphatase was then added at 37° C. for one hour (to immobilize antibody-phosphorylated protein-substrate complex). After washing three times, the alkaline phosphatase-substrate solution (3 mM 4-NPP, 50 mM NaHCO3, 50 mM MgCl2, 100 μl/well) was added at 37° C. for 1.5 hours. The formation of 4-nitrophenolate was measured at 405 nm using a microtiter plate reader. The IC50 values were calculated.

Structure (SMILES)	IC50 (TNFα)	IC50 (IL-1β)	IC50 (activated p38α)	Kinase assay % at 10^−5 mol/l (activated p38α; at 10^−5 mol/l)	Cytokines TNF α % at 10^−5 mol/l (TNFα)
OCC(O)CSc1nc(-c2ccc(F)cc2)c(-c2ccncc2)[nH]1 (centres unmarked) [Example 21, 5-(4-Fluorophenyl)-4-(4-pyridinyl)imidazole-2-thio-1-propane-2,3-diol]	900 nM	150 nM	–	–	–
CCOC(=O)C(Sc1nc(-c2ccc(F)cc2)c(-c2ccncc2)[nH]1)C(=O)OCC [Example 22, Diethyl 5-(4-fluorophenyl)-4-(4-pyridinyl)imidazole-2-thio-2-malonate]	360 nM	540 nM	–	–	–
O=C1OCCC1Sc1nc(-c2ccc(F)cc2)c(-c2ccncc2)[nH]1 (centres unmarked) [Example 23, 5-(4-Fluorophenyl)-4-(4-pyridinyl)imidazole-2-thio-3-butyrolactone]	3800 nM	190 nM	–	–	–
O=C(O)C(CCO)Sc1nc(-c2ccc(F)cc2)c(-c2ccncc2)[nH]1 (centres unmarked) [Example 24, 5-(4-Fluorophenyl)-4-(4-pyridinyl)imidazole-2-thio-2-butanoic acid-4-ol]	3800 nM	140 nM	–	–	–
COC(=O)CCCCSc1nc(-c2ccc(F)cc2)c(-c2ccncc2)[nH]1 [Example 25, Methyl 5-(4-fluorophenyl)-4-(4-pyridinyl)imidazole-2-thio-5-valerate]	–	1450 nM	–	–	28% at10^−5 mol/l
COC(=O)CCCSc1nc(-c2ccc(F)cc2)c(-c2ccncc2)[nH]1 [Example 25a, Methyl 5-(4-fluorophenyl)-4-(4-pyridinyl)imidazole-2-thio-4-butyrate]	–	750 nM	–	–	38% at10^−5 mol/l

Further lines, with some results ahead:

IC50 (TNFα)	IC50 (IL-1β)	IC50 (activated p38α)	Kinase assay % at 10^−5 mol/l (activated p38α; at 10^−5 mol/l)	Structure (SMILES)	Cytokines TNF α % at 10^−5 mol/l (TNFα)
1100 nM	650 nM	–	–	COC(=O)/C=C/CSc1nc(-c2ccc(F)cc2)c(-c2ccncc2)[nH]1 [Example 25b, Methyl 5-(4-fluorophenyl)-4-(4-pyridinyl)imidazole-2-thio-4-crotonate]	–
2100 nM	320 nM	750 nM	–	COC(=O)CSc1nc(-c2ccc(F)cc2)c(-c2ccncc2)[nH]1 [Example 25c, Methyl 5-(4-fluorophenyl)-4-(4-pyridinyl)imidazole-2-thio-2-acetate]	–
9500 nM	700 nM	975 nM	–	CCOC(=O)CSc1nc(-c2ccc(F)cc2)c(-c2ccncc2)[nH]1 [Example 25e, Ethyl 5-(4-fluorophenyl)-4-(4-pyridinyl)imidazole-2-thio-2-acetate]	–
3000 nM	150 nM	–	29.0% at10^−5 mol/l	CN(C)C(=O)CSc1nc(-c2ccc(F)cc2)c(-c2ccncc2)n1C [Example 27, 1-[4-(4-Fluorophenyl)-1-methyl-5-pyridin-4-yl-1H-imidazol-2-ylsulfanyl]-N,N-dimethylacetamide]	–
